Molecular target: T1, CLK4 (Homo sapiens, UniProt Q9HAZ1)
T1 construct: purchased Thermo Fisher Scientific (Life Technologies) SelectScreen
Test: SelectScreen LanthaScreen
Type: binding
Conditions: read-out: % displacement
Outline: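 Percent values come from Thermo SelectScreen profiling of NU5455, combining activity and binding assays. CSF1R was run in Z'LYTE format at Km app ATP, and CAMK1 in Adapta format with ATP listed at 10.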

T1 sequence (Q9HAZ1 whole entry): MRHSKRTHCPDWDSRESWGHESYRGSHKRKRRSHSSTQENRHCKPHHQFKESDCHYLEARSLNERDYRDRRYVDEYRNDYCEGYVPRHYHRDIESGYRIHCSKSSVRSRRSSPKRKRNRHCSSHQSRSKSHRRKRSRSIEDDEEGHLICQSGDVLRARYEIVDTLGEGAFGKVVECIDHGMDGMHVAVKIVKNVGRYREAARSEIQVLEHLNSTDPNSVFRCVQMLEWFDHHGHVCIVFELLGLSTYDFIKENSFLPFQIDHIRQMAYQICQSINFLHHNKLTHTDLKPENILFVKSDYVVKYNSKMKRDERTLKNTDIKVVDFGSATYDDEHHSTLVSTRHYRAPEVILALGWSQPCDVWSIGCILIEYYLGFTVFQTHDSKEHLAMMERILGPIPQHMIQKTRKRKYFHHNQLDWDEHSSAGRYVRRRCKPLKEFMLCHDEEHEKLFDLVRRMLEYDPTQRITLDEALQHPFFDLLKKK

SMILES: CN(C(=O)CN1CCOCC1)c1ccc2sc3c(-c4cccc5c(=O)cc(N6CC7CCC(C6)O7)oc45)cccc3c2c1 [NU5455]
- inhibition at 1 µM: 1.4%

Source: PMC6934184, “Selective DNA-PKcs inhibition extends the therapeutic index of localized radiotherapy and chemotherapy” (The Journal of Clinical Investigation, 2019)
